Measurements published in ChEMBL document CHEMBL4014331, “Design and Synthesis of Soluble and Cell-Permeable PI3Kδ Inhibitors for Long-Acting Inhaled Administration” (J Med Chem, 2017).

Assays:
[1] = target: PI3-kinase p110-delta/p85-alpha (Homo sapiens, UniProt O00329); experiment: Inhibition of recombinant human His6-tagged PI3K p110delta/p85alpha using DiC8-PIP2 as substrate preincubated for 15 mins followed by substrate addition measured after 60 mins by ADP-Glo assay; type: protein-complex assay
Sequence of PI3-kinase p110-delta/p85-alpha (P27986 whole entry, one chain of several): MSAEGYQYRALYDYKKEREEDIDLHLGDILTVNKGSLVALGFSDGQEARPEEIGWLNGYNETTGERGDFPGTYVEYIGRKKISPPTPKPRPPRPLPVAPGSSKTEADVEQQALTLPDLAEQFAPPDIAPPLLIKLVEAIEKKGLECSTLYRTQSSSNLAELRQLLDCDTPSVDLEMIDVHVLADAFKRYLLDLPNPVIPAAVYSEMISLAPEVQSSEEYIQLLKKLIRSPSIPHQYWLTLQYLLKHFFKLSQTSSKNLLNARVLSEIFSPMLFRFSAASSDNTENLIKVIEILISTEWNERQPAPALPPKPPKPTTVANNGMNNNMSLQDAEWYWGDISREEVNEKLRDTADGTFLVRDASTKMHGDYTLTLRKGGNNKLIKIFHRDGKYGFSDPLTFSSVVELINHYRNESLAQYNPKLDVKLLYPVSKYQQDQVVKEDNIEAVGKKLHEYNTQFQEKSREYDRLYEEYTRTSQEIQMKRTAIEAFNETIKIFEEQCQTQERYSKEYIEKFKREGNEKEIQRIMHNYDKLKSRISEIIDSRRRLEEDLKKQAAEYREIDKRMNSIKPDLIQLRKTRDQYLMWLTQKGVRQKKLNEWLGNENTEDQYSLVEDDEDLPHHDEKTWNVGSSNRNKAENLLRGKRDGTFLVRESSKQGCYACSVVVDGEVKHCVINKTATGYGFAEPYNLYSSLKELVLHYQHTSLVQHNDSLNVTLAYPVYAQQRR

[2] = target: PI3-kinase p110-alpha/p85-alpha (Homo sapiens, UniProt P42336); experiment: Inhibition of recombinant human His6-tagged PI3K p110alpha/p85alpha using DiC8-PIP2 as substrate preincubated for 15 mins followed by substrate addition measured after 60 mins by ADP-Glo assay; type: protein-complex assay
Sequence of PI3-kinase p110-alpha/p85-alpha (P27986 whole entry): as the sequence (P27986 whole entry, one chain of several) above
Sequence of PI3-kinase p110-alpha/p85-alpha (P42336 whole entry): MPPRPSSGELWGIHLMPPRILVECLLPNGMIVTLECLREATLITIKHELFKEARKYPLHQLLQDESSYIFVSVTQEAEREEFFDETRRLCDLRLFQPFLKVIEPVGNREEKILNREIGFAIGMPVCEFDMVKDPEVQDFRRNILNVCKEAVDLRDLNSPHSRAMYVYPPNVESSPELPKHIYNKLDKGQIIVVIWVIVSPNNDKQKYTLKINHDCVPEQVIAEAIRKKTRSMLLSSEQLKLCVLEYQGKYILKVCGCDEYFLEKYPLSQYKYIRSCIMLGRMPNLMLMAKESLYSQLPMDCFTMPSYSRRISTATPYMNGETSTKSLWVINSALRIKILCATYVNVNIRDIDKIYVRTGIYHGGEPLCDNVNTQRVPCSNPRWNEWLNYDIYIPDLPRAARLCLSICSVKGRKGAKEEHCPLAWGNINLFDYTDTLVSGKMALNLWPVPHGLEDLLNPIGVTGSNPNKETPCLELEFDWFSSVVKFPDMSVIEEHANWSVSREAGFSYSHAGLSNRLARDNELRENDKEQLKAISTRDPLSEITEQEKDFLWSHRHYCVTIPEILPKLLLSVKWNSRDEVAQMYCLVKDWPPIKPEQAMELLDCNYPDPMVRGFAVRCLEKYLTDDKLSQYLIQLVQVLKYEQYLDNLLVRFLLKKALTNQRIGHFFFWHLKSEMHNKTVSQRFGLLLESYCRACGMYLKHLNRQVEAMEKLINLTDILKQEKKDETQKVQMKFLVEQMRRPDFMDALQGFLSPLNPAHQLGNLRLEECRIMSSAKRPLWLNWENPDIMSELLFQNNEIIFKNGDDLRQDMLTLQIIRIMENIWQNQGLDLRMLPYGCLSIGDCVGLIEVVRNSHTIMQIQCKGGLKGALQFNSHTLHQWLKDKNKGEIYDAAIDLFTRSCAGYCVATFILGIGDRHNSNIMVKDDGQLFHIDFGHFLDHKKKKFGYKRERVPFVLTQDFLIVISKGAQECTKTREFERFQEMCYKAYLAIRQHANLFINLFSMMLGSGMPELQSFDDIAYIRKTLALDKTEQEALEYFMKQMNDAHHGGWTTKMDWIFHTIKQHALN

[3] = target: PI3K p110 beta/p85 alpha (Homo sapiens, UniProt P42338); experiment: Inhibition of recombinant human His6-tagged PI3K p110beta/p85alpha using DiC8-PIP2 as substrate preincubated for 15 mins followed by substrate addition measured after 60 mins by ADP-Glo assay; type: protein-complex assay
Sequence of PI3K p110 beta/p85 alpha (P27986 whole entry, the tested form may be a part, canonical isoform): as the sequence (P27986 whole entry, one chain of several) above
Sequence of PI3K p110 beta/p85 alpha (P42338 whole entry, the tested form may be a part, canonical isoform): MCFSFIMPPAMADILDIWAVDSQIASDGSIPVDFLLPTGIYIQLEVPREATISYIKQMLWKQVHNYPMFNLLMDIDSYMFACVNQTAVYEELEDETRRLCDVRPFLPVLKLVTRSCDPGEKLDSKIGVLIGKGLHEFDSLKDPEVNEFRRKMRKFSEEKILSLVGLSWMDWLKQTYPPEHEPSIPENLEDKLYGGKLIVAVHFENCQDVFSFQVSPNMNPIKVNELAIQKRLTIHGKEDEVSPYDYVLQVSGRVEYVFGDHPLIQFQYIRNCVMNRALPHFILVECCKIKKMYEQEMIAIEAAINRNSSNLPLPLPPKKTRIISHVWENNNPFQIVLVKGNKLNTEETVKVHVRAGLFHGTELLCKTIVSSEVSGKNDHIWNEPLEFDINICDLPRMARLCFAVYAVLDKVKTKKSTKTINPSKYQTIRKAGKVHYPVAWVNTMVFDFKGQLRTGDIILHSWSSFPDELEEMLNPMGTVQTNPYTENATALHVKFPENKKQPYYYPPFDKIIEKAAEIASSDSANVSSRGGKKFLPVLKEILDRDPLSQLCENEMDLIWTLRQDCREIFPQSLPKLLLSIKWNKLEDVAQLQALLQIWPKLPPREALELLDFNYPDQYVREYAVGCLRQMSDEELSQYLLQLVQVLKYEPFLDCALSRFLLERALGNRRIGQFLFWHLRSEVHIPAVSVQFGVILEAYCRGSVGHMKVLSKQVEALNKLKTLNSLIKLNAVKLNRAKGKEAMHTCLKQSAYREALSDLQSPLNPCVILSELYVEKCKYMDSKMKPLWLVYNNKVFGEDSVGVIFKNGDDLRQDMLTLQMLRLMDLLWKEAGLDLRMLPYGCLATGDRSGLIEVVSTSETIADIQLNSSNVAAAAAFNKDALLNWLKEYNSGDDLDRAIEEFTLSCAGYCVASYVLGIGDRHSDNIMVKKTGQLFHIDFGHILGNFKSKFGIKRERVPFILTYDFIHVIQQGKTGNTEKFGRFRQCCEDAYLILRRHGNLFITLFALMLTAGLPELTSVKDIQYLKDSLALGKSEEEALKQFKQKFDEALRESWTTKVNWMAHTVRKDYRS

[4] = target: Phosphatidylinositol 4,5-bisphosphate 3-kinase catalytic subunit gamma isoform (Homo sapiens, UniProt P48736); experiment: Inhibition of recombinant human His6-tagged PI3Kgamma (144 to 1102 residues) using DiC8-PIP2 as substrate preincubated for 15 mins followed by substrate addition measured after 60 mins by ADP-Glo assay
[5] = target: T1, Phosphatidylinositol 4,5-bisphosphate 3-kinase catalytic subunit delta isoform (Homo sapiens, UniProt O00329); experiment: Inhibition of PI3Kdelta in human JeKo1 cells assessed as reduction in Akt phosphorylation at Ser473 residue preincubated for 60 mins followed by Anti-IgM stimulation for 10 mins by TR-FRET assay; type: cell-based
T1 sequence (O00329 whole entry): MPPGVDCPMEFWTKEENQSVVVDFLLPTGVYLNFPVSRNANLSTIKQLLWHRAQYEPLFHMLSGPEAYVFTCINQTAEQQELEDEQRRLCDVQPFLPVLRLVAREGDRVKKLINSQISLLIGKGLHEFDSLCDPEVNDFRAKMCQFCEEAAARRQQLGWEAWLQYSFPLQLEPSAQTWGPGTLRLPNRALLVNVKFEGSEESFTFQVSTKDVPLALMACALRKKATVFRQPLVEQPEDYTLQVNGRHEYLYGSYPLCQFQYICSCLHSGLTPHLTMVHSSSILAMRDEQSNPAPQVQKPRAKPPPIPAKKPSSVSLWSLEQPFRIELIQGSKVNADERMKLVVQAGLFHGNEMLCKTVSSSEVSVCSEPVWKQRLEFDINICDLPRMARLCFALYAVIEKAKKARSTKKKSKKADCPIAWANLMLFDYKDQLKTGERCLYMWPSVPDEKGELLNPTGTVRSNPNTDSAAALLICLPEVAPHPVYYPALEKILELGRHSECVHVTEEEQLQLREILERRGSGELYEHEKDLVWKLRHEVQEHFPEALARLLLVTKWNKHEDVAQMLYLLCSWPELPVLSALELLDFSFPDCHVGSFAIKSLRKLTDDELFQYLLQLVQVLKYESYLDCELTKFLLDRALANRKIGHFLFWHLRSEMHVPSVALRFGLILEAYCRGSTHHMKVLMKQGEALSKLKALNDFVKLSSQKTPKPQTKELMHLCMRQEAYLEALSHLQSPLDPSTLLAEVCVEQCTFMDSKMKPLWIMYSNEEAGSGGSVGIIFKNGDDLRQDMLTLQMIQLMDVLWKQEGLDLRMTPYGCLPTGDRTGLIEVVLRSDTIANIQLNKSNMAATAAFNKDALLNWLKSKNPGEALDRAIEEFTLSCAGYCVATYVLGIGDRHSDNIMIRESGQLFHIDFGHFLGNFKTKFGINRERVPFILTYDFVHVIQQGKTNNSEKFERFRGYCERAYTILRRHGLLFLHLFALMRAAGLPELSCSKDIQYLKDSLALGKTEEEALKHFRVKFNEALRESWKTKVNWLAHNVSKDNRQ

[6] = Lipophilicity, log D of the compound; type: physicochemical; conditions: octanol/water
[7] = Terminal half life in it dosed rat lung by LC-MS/MS analysis; type: ADME, organism-based; conditions: inhaled or intranasal, read-out: beta t1/2 (converted)
[8] = Metabolic stability in it dosed rat lungs assessed as compound remaining at 24 hrs post dose by LC-MS/MS analysis; type: ADME, organism-based; conditions: lung, inhaled or intranasal, read-out: Stability
[9] = Dissociation constant, acidic pKa of compound; type: physicochemical
[10] = Dissociation constant, basic pKa of compound; type: physicochemical
[11] = target: hERG (KCNH2) (Homo sapiens, UniProt Q12809); experiment: Inhibition of human ERG at 11 uM relative to control
Sequence of hERG (KCNH2) (Q12809 whole entry): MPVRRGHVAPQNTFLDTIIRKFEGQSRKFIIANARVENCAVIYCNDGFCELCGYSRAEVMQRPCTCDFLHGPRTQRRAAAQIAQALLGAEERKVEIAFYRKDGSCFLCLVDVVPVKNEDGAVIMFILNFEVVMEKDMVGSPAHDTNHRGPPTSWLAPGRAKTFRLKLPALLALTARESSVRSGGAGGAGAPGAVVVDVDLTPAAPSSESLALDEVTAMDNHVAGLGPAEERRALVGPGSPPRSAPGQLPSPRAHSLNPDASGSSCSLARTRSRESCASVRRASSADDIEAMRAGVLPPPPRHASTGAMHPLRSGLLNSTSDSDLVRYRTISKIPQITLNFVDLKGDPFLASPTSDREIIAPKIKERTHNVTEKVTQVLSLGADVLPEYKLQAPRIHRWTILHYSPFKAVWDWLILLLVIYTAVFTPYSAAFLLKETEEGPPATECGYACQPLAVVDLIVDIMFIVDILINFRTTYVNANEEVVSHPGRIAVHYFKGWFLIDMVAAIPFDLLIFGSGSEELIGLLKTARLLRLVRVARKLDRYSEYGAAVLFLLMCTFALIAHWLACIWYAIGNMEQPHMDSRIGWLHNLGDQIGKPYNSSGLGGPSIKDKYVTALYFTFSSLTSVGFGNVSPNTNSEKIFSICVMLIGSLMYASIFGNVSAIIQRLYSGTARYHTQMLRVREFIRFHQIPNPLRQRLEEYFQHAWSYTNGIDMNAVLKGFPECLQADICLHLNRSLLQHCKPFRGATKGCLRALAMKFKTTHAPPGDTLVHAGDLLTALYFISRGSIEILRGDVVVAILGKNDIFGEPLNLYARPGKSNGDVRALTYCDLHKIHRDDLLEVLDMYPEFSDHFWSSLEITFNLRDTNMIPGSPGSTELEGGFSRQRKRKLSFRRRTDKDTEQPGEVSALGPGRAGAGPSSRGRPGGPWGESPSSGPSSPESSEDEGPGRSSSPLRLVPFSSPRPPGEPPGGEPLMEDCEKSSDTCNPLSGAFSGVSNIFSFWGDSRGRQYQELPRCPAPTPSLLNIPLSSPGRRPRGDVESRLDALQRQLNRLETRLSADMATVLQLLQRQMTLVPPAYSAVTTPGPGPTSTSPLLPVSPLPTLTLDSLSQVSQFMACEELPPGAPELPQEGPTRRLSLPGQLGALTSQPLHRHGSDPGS

[12] = Clearance in iv dosed rat; type: ADME, organism-based; conditions: in vivo
[13] = Half life in iv or po dosed rat; type: ADME, organism-based; conditions: in vivo
[14] = Volume of distribution at steady state in iv or po dosed rat; type: ADME, organism-based; conditions: in vivo, read-out: Vdss
[15] = Oral bioavailability in rat; type: ADME, organism-based; conditions: in vivo
[16] = system: Mus musculus; experiment: In vivo inhibition of PI3Kdelta in ovalbumin-sensitized OT-2 transgenic C57BL/6-Tg-(Tcratcrb)425Cbn/Crl mouse assessed as reduction in S6RP phosphorylation at Ser235/236 residues in bronchoalveolar lung lavage administered […] 18 hrs prior to anti-CD3 stimulation measured after 6 hrs; type: functional, organism-based

Row | IC50 [1] | IC50 [2] | IC50 [3] | IC50 [4] | IC50 [5] | logD [6] | half-life [7] | remaining at 24 h [8] | pKa [9] | pKa [10] | clearance [12] | half-life [13] | Vd [14] | bioavailability [15] | SMILES | inhibition at 11 µM [11] | inhibition [16]
1 | 0.000501 µM | ≥ 0.631 µM | 0.0631 µM | ≥ 0.2 µM | 0.01 µM | 0.5 | 23.2 h | 4.8% | 9.5 | 6.5 | 3.42 L/h/kg | 12 h | 12 L/kg | < 1% | Cc1csc2cc([C@H](C)Nc3ncnc(N)c3C#N)c(-c3cccc(CN4CCC(N(C)C)CC4)c3)c(=O)n12 | < 20% | Dose-dependent effect
2 | 0.000631 µM | ≥ 0.631 µM | 0.0794 µM | ≥ 0.2 µM | 0.00126 µM | 1.7 | 9.9 h | 2.8% | 9.7 | 6.8 | 9 L/h/kg | 11 h | 88 L/kg | < 1% | Cc1csc2cc([C@H](C)Nc3ncnc(N)c3C#N)c(-c3cccc(CN4CCC(N(C)CC(C)C)CC4)c3)c(=O)n12 | < 20% | Dose-dependent effect
